Measured values taken from US4632925A, “N-substituted diphenylpiperidines and antiobesity use thereof” (Hoffmann-La Roche Inc., priority 1985, dated 1986).
Counter-ions that a name gives are not always drawn.

Legend:
[1] = Glucose clearance: acute in vivo model; design: species or system Sprague-Dawley rats; settings: Rattus norvegicus, po, 0.5 h; 100 mg/kg intragastric, 30 min before i.p. glucose 1 g/kg; circulating glucose at 30 min; >100% indicates activity
Procedure: GLUCOSE CLEARANCE: ACUTE IN VIVO MODEL
The rationale for this test is that compounds which suppress insulin secretion should increase circulating glucose levels above those observed in controls following the administration of a high glucose load. Sprague-Dawley rats which range in weight from 150 to 180 grams after an overnight fast of 16 or 18 hours are given the test compound (100 mg/kg body weight) by intragastric administration 30 minutes before the intraperitoneal administration of glucose (1 g/kg body weight). Circulating glucose levels are determined immediately before glucose administration and 30, 60 and 90 minutes after glucose administration. Active compounds increase circulating glucose levels compared to controls. Since glucose levels peak at 30 minutes following glucose administration, the difference in circulating glucose levels between controls and treated rats at 30 minutes is used as an index of activity. The data are expressed as percent of control.

[2] = tested on: isolated perfused rat pancreas (insulin secretion); experiment: Insulin-secretory activity in the isolated perfused rat pancreas; design: species or system rat (female Charles River); settings: 16.7 mM glucose, index > 1 indicates suppression of insulin secretion
Procedure: DETERMINATION OF INSULIN-SECRETORY ACTIVITY IN THE ISOLATED PERFUSED RAT PANCREAS
Pancreases were obtained from young adult female Charles River rats weighing from 200-300 g. The animals were anesthesized with sodium pentobarbitol (45 mg/kg), injected intraperitoneally, and the pancreas with its intact vasculature was removed and connected to an extracorporeal perfusion apparatus.
The basic perfusion solution contained: 133 mM NaCl, 4.4 mM KCl, 2.5 mM MgSO4, 2.4 mM Ca gluconate, 1.5 mM KH2 PO4, 29.4 mM HaHCO3, 4% dextran and 0.2% bovine serum albumin and glucose as discussed below. The perfusion flow rate was kept constant at 4 ml/min. After a 15-20 minute equilibration period, the experimental protocol was begun. The pancreatic effluent was collected in either one or four-minute fractions.
The perfusion was run in the following sequence for each test compounds:
30 min 16.7 mM glucose--internal control
30 min 16.7 mM glucose and test compound
10 min 16.7 mM glucose--to check pancreas viability
The perfusion for the nontreated pancreas preparation was run as above, except that the test compound was omitted and replaced with perfusion solution.
Test compounds were dissolved in 90% ethanol or dimethylsulfoxide to a concentration of 25 mM and then diluted in the perfusion buffer to the desired concentration. The perfusion effluent was collected in one or four minute fractions--the samples were checked immediately, aliquoted for submission to radioimmunoassay and stored at -20° C. until the time of assay. The radioimmunoassay of insulin was carried out by a back-titration method using a pure rat insulin standard.
To assess the inhibitory activity of the test compounds, an inhibition index was calculated. The inhibition index is derived by comparing the insulin secretion response from treated versus nontreated pancreas preparations. For each preparation, a ratio of insulin secretion was calculated from the area under the insulin secretion curve of the first pulse of 16.7 mM glucose divided by the area under the curve of the second pulse of 16.7 mM glucose containing compound.

[3] = Antiobesity effects in obese Zucker rats; assay type: in vivo, genetically obese male Zucker rats; settings: 58 mg/kg, 14 days
Procedure: ANTIOBESITY EFFECTS IN OBESE ZUCKER RATS
Genetically Obese Male Zucker rats were kept in temperature (22° C.) and light (12 hours light-dark cycle) regulated rooms. One week prior to the start of the experiment, the rats were transferred to individual wirebottomed cages and trained to eat a powdered chow diet (Ralston Purina Co., St. Louis, Mo.) ad libitum.
At the beginning of the experiment, the control group contributed to eat the chow diet and the experimental animals were given a chow diet containing drug. The amount of drug administered was calculated from the food intake per kg body weight for each experimental group. The age of the rats at the start of the drug treatment was two to three months. The period of treatment was 28 to 64 days. Food intake and body weights were recorded periodically (once each day to twice a week) throughout the duration of the study. Plasma samples for insulin and glucose determinations were taken from clipped tails. Carcass composition was determined at the end of the treatment period and, or comparative purposes, prior to the start of treatment.

SMILES: O=C(CCCc1cccnc1)N1CCC(C(c2ccccc2)c2ccccc2)CC1 [Example 10, 4-diphenylmethyl-1-[1-oxo-4-(3-pyridinyl)butyl]piperidine, 0.1 molar ethylacetate solvate]
- response vs control in vivo at 100 mg/kg [1]: 105%
- Perfused Pancreas Inhibition Index ([2]; 100 μM): 6.0

SMILES: O=C(CCCc1cccnc1)N1CCC(C=C(c2ccccc2)c2ccccc2)CC1 [Example 11, 4-(2,2-diphenylethenyl)-1-[1-oxo-4-(3-pyridinyl)butyl]piperidine]
- response vs control in vivo at 100 mg/kg [1]: 99%
- Perfused Pancreas Inhibition Index ([2]; 50 μM): 7.6

SMILES: O=C(CCCc1cccnc1)N1CCC(CC(c2ccccc2)c2ccccc2)CC1 [Example 14, 4-(2,2-diphenylethyl)-1-[1-oxo-4-(3-pyridinyl)butyl]piperidine]
- response vs control in vivo at 100 mg/kg [1]: 109%
- Perfused Pancreas Inhibition Index ([2]; 100 μM): 14.1

SMILES: c1ccc(C(c2ccccc2)C2CCN(CCCCc3cccnc3)CC2)cc1 [Example 16, 3-[4-[4-(Diphenylmethyl)-1-piperidinyl]butyl]pyridine (1:1)-(Z)-2-butenedioate salt]
- response vs control in vivo at 100 mg/kg [1]: 120%
- Perfused Pancreas Inhibition Index ([2]; 100 μM): 5.3

SMILES: C(=C(c1ccccc1)c1ccccc1)C1CCN(CCCCc2cccnc2)CC1 [Example 17, 3-[4-[4-(2,2-Diphenylethenyl)-1-piperidinyl]butyl]pyridine]
- response vs control in vivo at 100 mg/kg [1]: 101%
- Perfused Pancreas Inhibition Index ([2]; 100 μM): 1.7

SMILES: Fc1ccc(C(=CC2CCN(CCCCc3cccnc3)CC2)c2ccc(F)cc2)cc1 [Example 18, 3-[4-[4-[2,2-bis(4-fluorophenyl)ethenyl]-1-piperidinyl]butyl]pyridine (1:1)-(E)-2-butenedioate salt]
- response vs control in vivo at 100 mg/kg [1]: 113%
- Perfused Pancreas Inhibition Index ([2]; 100 μM): 0.6

SMILES: C(=C(c1ccccc1)c1ccccc1)C1CCN(CCCCCc2cccnc2)CC1 [Example 19, 3-[5-[4-(2,2-Diphenylethenyl)-1-piperidinyl]pentyl]pyridine (1:1)-(E)-2-butenedioate salt]
- response vs control in vivo at 100 mg/kg [1]: 97%
- Perfused Pancreas Inhibition Index ([2]; 100 μM): 24.1

SMILES: c1ccc(C(CC2CCN(CCCCc3cccnc3)CC2)c2ccccc2)cc1 [Example 20, 3-[4-[4-(2,2-Diphenylethyl)-1-piperidinyl]butyl]pyridine]
- response vs control in vivo at 100 mg/kg [1]: 106%
- Perfused Pancreas Inhibition Index ([2]; 100 μM): 19.1

SMILES: Fc1ccc(C(CC2CCN(CCCCc3cccnc3)CC2)c2ccc(F)cc2)cc1 [Example 21, 3-[4-[4-[2,2-Bis(4-fluorophenyl)ethyl]-1-piperidinyl]butyl]pyridine (1:1)-(E)-2-butenedioate salt]
- response vs control in vivo at 100 mg/kg [1]: 136%
- Perfused Pancreas Inhibition Index ([2]; 100 μM): 16.3

SMILES: C(=C(c1ccccc1)c1ccccc1)C1CCN(CCCc2cccnc2)CC1 [Example 22, 3-[3-[4-(2,2-Diphenylethenyl)-1-piperidinyl]propyl]pyridine (1:1)-(E)-2-butenedioate salt]
- response vs control in vivo at 100 mg/kg [1]: 101%
- Perfused Pancreas Inhibition Index ([2]; 100 μM): 10.1

SMILES: C(=C(c1ccccc1)c1ccccc1)C1CCN(CCCCCCc2cccnc2)CC1 [Example 23, 3-[6-[4-(2,2-diphenylethenyl)-1-piperidinyl]hexyl]pyridine (1:1)-(E)-2-butenedioate salt]
- response vs control in vivo at 100 mg/kg [1]: 144%
- Perfused Pancreas Inhibition Index ([2]; 100 μM): 2.6

SMILES: c1ccc(C(CC2CCN(CCCCCCCCc3cccnc3)CC2)c2ccccc2)cc1 [Example 27, 3-[8-[4-(2,2-Diphenylethyl)-1-piperidinyl]octyl]pyridine]
- Relative Body Weight Gain Index ([3]; gain / days / dose (g/kg)): 94
- Body Weight Gain (treated minus control) ([3]; marked *): -76 g
- Food Intake ([3]; marked *): 70 % of control
